In US6638973B2, “Taxane formulations” (FSU Research Foundation, Inc., priority 2000, dated 2003):

System: HCT116 cells
Assay: In vitro cytotoxicity measured by the cell colony formation assay
Assay type: cell-based
Details: HCT116 colony formation; 72 h drug incubation, colonies counted after 7 days; Example 5, C-7 ester/C-10 hydroxy taxanes; read-out: IN VITRO ID 50 (nm) HCT116
Experimental: (§1) Four hundred cells (HCT116) were plated in 60 mm Petri dishes containing 2.7 mL of medium (modified McCoy's 5a medium containing 10% fetal bovine serum and 100 units/mL penicillin and 100 µg/mL streptomycin). The cells were incubated in a CO2 incubator at 37° C. for 5 h for attachment to the bottom of Petri dishes. The compounds identified in Example 2 were made up fresh in medium at ten times the final concentration, and then 0.3 mL of this stock solution was added to the 2.7 mL of medium in the dish. The cells were then incubated with drugs for 72 h at 37° C. At the end of incubation the drug-containing media were decanted, the dishes were rinsed with 4 mL of Hank's Balance Salt Solution (HBSS), 5 mL of fresh medium was added, and the dishes were returned to the incubator for colony formation. The cell colonies were counted using a colony counter after incubation for 7 days.
as §1, with “Example 7” for “Example 2”
as §1, with “Example 22” for “Example 2”
as §1, with “Example 27” for “Example 2”
Four hundred cells (HCT116) were plated in 60 mm Petri dishes containing 2.7 mL of medium (modified McCoy's 5a medium containing 10% fetal bovine serum and 100 units/mL penicillin and 100 µg/mL streptomycin). The cells were incubated in a CO2 incubator at 37° C. for 5 h for attachment to the bottom of Petri dishes. […]

CCC(=O)O[C@H]1C[C@H]2OC[C@@]2(OC(C)=O)C2[C@H](OC(=O)c3ccccc3)[C@]3(O)C[C@H](OC(=O)[C@H](O)[C@H](C=C(C)C)NC(=O)OC(C)(C)C)C(C)=C([C@@H](O)C(=O)[C@@]21C)C3(C)C (some centres unmarked) [Compound 1351] and CCC(=O)O[C@H]1C[C@H]2OC[C@@]2(OC(C)=O)C2[C@H](OC(=O)c3ccccc3)[C@]3(O)C[C@H](OC(=O)[C@H](O)[C@@H](NC(=O)OC(C)(C)C)c4ccccn4)C(C)=C([C@@H](O)C(=O)[C@@]21C)C3(C)C (some centres unmarked) [Compound 1364] cannot be ordered by IC50: under 1 nM for the first, under 10 nM for the second.

Compared with CCC(=O)O[C@H]1C[C@H]2OC[C@@]2(OC(C)=O)C2[C@H](OC(=O)c3ccccc3)[C@]3(O)C[C@H](OC(=O)[C@H](O)[C@@H](NC(=O)OC(C)(C)C)c4cccnc4)C(C)=C([C@@H](O)C(=O)[C@@]21C)C3(C)C (some centres unmarked) [Compound 1372], CCC(=O)O[C@H]1C[C@H]2OC[C@@]2(OC(C)=O)C2[C@H](OC(=O)c3ccccc3)[C@]3(O)C[C@H](OC(=O)[C@H](O)[C@@H](NC(=O)OC(C)(C)C)c4ccncc4)C(C)=C([C@@H](O)C(=O)[C@@]21C)C3(C)C (some centres unmarked) [Compound 1386] is lower in IC50: 26.1 nM for the first, under 1 nM for the second.

Same assay, conditions: HCT116 colony formation; 72 h drug incubation, colonies counted after 7 days; Example 10, C-10 ester/C-7 hydroxy taxanes; read-out: IN VITRO ID 50 (nm) HCT116

CC(=O)O[C@@]12CO[C@@H]1C[C@H](O)[C@@]1(C)C(=O)[C@H](OC(=O)C3CC3)C3=C(C)[C@@H](OC(=O)[C@H](O)[C@@H](NC(=O)OC(C)(C)C)c4ccco4)C[C@@](O)([C@@H](OC(=O)c4ccccc4)C12)C3(C)C (some centres unmarked) [Compound 0843] and CC(=O)O[C@@]12CO[C@@H]1C[C@H](O)[C@@]1(C)C(=O)[C@H](OC(=O)C3CC3)C3=C(C)[C@@H](OC(=O)[C@H](O)[C@@H](NC(=O)OC(C)(C)C)c4cccs4)C[C@@](O)([C@@H](OC(=O)c4ccccc4)C12)C3(C)C (some centres unmarked) [Compound 0854] cannot be ordered by IC50: under 1 nM for the first, under 1 nM for the second.

CC(=O)O[C@@]12CO[C@@H]1C[C@H](O)[C@@]1(C)C(=O)[C@H](OC(=O)C3CC3)C3=C(C)[C@@H](OC(=O)[C@H](O)[C@@H](NC(=O)OC(C)(C)C)C4CC4)C[C@@](O)([C@@H](OC(=O)c4ccccc4)C12)C3(C)C (some centres unmarked) [Compound 0860] and CCCC(=O)OC1C(=O)C2(C)C(O)CC3OCC3(OC(C)=O)C2C(OC(=O)c2ccccc2)C2(O)CC(OC(=O)C(O)C(NC(=O)OC(C)(C)C)C3CC3)C(C)=C1C2(C)C (centres unmarked) [Compound 1020] cannot be ordered by IC50: under 1 nM for the first, under 1 nM for the second.

CC(=O)O[C@@]12CO[C@@H]1C[C@H](O)[C@@]1(C)C(=O)[C@H](OC(=O)C3CC3)C3=C(C)[C@@H](OC(=O)[C@H](O)[C@@H](NC(=O)OC(C)(C)C)c4ccc([N+](=O)[O-])cc4)C[C@@](O)([C@@H](OC(=O)c4ccccc4)C12)C3(C)C (some centres unmarked) [Compound 0879] and CC(=O)O[C@@]12CO[C@@H]1C[C@H](O)[C@@]1(C)C(=O)[C@H](OC(=O)C3CC3)C3=C(C)[C@@H](OC(=O)[C@H](O)[C@@H](NC(=O)OC(C)(C)C)c4ccccc4)C[C@@](O)([C@@H](OC(=O)c4ccccc4)C12)C3(C)C (some centres unmarked) [Compound 0882] cannot be ordered by IC50: under 1 nM for the first, under 1 nM for the second.

CC(=O)O[C@@]12CO[C@@H]1C[C@H](O)[C@@]1(C)C(=O)[C@H](OC(=O)C3CC3)C3=C(C)[C@@H](OC(=O)[C@H](O)[C@H](C=C(C)C)NC(=O)c4ccccc4)C[C@@](O)([C@@H](OC(=O)c4ccccc4)C12)C3(C)C (some centres unmarked) [Compound 0890] and CC(=O)O[C@@]12CO[C@@H]1C[C@H](O)[C@@]1(C)C(=O)[C@H](OC(=O)C3CC3)C3=C(C)[C@@H](OC(=O)[C@H](O)[C@@H](NC(=O)c4ccccc4)C4CC4)C[C@@](O)([C@@H](OC(=O)c4ccccc4)C12)C3(C)C (some centres unmarked) [Compound 0923] cannot be ordered by IC50: under 1 nM for the first, under 1 nM for the second.

CC(=O)O[C@@]12CO[C@@H]1C[C@H](O)[C@@]1(C)C(=O)[C@H](OC(=O)C3CC3)C3=C(C)[C@@H](OC(=O)[C@H](O)[C@@H](NC(=O)c4ccccc4)c4ccco4)C[C@@](O)([C@@H](OC(=O)c4ccccc4)C12)C3(C)C (some centres unmarked) [Compound 0908] and CC(=O)O[C@@]12CO[C@@H]1C[C@H](O)[C@@]1(C)C(=O)[C@H](OC(=O)C3CC3)C3=C(C)[C@@H](OC(=O)[C@H](O)[C@@H](NC(=O)c4ccccc4)c4cccs4)C[C@@](O)([C@@H](OC(=O)c4ccccc4)C12)C3(C)C (some centres unmarked) [Compound 0919] cannot be ordered by IC50: under 1 nM for the first, under 1 nM for the second.

CC(=O)O[C@@]12CO[C@@H]1C[C@H](O)[C@@]1(C)C(=O)[C@H](OC(=O)C3CC3)C3=C(C)[C@@H](OC(=O)[C@H](O)[C@@H](NC(=O)c4ccccc4)c4ccccc4)C[C@@](O)([C@@H](OC(=O)c4ccccc4)C12)C3(C)C (some centres unmarked) [Compound 0937] and CCCC(=O)OC1C(=O)C2(C)C(O)CC3OCC3(OC(C)=O)C2C(OC(=O)c2ccccc2)C2(O)CC(OC(=O)C(O)C(NC(=O)OC(C)(C)C)c3ccccc3)C(C)=C1C2(C)C (centres unmarked) [Compound 1060] cannot be ordered by IC50: under 10 nM for the first, under 1 nM for the second.

CCCC(=O)O[C@H]1C(=O)[C@@]2(C)C([C@H](OC(=O)c3ccccc3)[C@]3(O)C[C@H](OC(=O)[C@H](O)[C@H](C=C(C)C)NC(=O)OC(C)(C)C)C(C)=C1C3(C)C)[C@]1(OC(C)=O)CO[C@@H]1C[C@@H]2O (some centres unmarked) [Compound 0947] and CCCC(=O)OC1C(=O)C2(C)C(O)CC3OCC3(OC(C)=O)C2C(OC(=O)c2ccccc2)C2(O)CC(OC(=O)C(O)C(NC(=O)OC(C)(C)C)C(C)C)C(C)=C1C2(C)C (centres unmarked) [Compound 1031] cannot be ordered by IC50: under 1 nM for the first, under 10 nM for the second.

CCCC(=O)O[C@H]1C(=O)[C@@]2(C)C([C@H](OC(=O)c3ccccc3)[C@]3(O)C[C@H](OC(=O)[C@H](O)[C@@H](NC(=O)OC(C)(C)C)c4ccccn4)C(C)=C1C3(C)C)[C@]1(OC(C)=O)CO[C@@H]1C[C@@H]2O (some centres unmarked) [Compound 0951] and CCCC(=O)O[C@H]1C(=O)[C@@]2(C)C([C@H](OC(=O)c3ccccc3)[C@]3(O)C[C@H](OC(=O)[C@H](O)[C@@H](NC(=O)OC(C)(C)C)c4cccnc4)C(C)=C1C3(C)C)[C@]1(OC(C)=O)CO[C@@H]1C[C@@H]2O (some centres unmarked) [Compound 0966] cannot be ordered by IC50: under 1 nM for the first, under 10 nM for the second.

CCCC(=O)O[C@H]1C(=O)[C@@]2(C)C([C@H](OC(=O)c3ccccc3)[C@]3(O)C[C@H](OC(=O)[C@H](O)[C@@H](NC(=O)OC(C)(C)C)c4ccncc4)C(C)=C1C3(C)C)[C@]1(OC(C)=O)CO[C@@H]1C[C@@H]2O (some centres unmarked) [Compound 0978] and CCCC(=O)O[C@H]1C(=O)[C@@]2(C)C([C@H](OC(=O)c3ccccc3)[C@]3(O)C[C@H](OC(=O)[C@H](O)[C@@H](NC(=O)OC(C)(C)C)c4ccoc4)C(C)=C1C3(C)C)[C@]1(OC(C)=O)CO[C@@H]1C[C@@H]2O (some centres unmarked) [Compound 0999] cannot be ordered by IC50: under 1 nM for the first, under 1 nM for the second.

CCCC(=O)O[C@H]1C(=O)[C@@]2(C)C([C@H](OC(=O)c3ccccc3)[C@]3(O)C[C@H](OC(=O)[C@H](O)[C@@H](NC(=O)OC(C)(C)C)c4ccco4)C(C)=C1C3(C)C)[C@]1(OC(C)=O)CO[C@@H]1C[C@@H]2O (some centres unmarked) [Compound 0983] and CCCC(=O)O[C@H]1C(=O)[C@@]2(C)C([C@H](OC(=O)c3ccccc3)[C@]3(O)C[C@H](OC(=O)[C@H](O)[C@@H](NC(=O)OC(C)(C)C)c4cccs4)C(C)=C1C3(C)C)[C@]1(OC(C)=O)CO[C@@H]1C[C@@H]2O (some centres unmarked) [Compound 1003] cannot be ordered by IC50: under 1 nM for the first, under 1 nM for the second.

CCCC(=O)O[C@H]1C(=O)[C@@]2(C)C([C@H](OC(=O)c3ccccc3)[C@]3(O)C[C@H](OC(=O)[C@H](O)[C@@H](NC(=O)OC(C)(C)C)c4ccsc4)C(C)=C1C3(C)C)[C@]1(OC(C)=O)CO[C@@H]1C[C@@H]2O (some centres unmarked) [Compound 1011] and CCCC(=O)OC1C(=O)C2(C)C(O)CC3OCC3(OC(C)=O)C2C(OC(=O)c2ccccc2)C2(O)CC(OC(=O)C(O)C(NC(=O)OC(C)(C)C)C3CCC3)C(C)=C1C2(C)C (centres unmarked) [Compound 1044] cannot be ordered by IC50: under 1 nM for the first, under 1 nM for the second.
